Assay results taken from patent US20260097022A1, “COMPOUNDS AND USES THEREOF” (Integrated Biosciences, Inc., priority 2023, published 2026).

System: etoposide-treated IMR-90 cells
Assay: Etoposide-induced senescence model, resazurin cell viability (screen and dose-response)
Type: cell-based, human
Conditions: 10 μM, 3 days; active: control viability >0.5, Snc/control ratio <0.7
Summary of the method: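 IMR-90 fibroblasts made senescent with 50 μM etoposide for 2 days, then 4 days recovery before plating. Compounds at 10 μM or 1 μM final (screen) or three-fold dilutions (1% DMSO) for 3 days, then 0.15 mM resazurin 1 day, fluorescence 550/590 nm. Viability expressed as fraction of untreated controls; biological duplicates.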

**Q.** CN(C)CC#Cc1ccc(OCCCc2sc(N3CCc4cccc(C(=O)Nc5nc6ccccc6s5)c4C3)nc2C(=O)O)c(F)c1 [A-1155463, reference compound] was tested. Which “senolytic activity in screen” value did it give?
**A.** active

Same assay, conditions: etoposide-induced senescence model; ratio of IC50 values between etoposide- and DMSO-treated IMR-90 fibroblasts

**Q.** Which “Therapeutic Index (TI)” value does the source give for Cc1ccc(NC(=O)CSc2nc3ccc(NC(=O)c4ccccc4F)cc3s2)cc1Cl [compound 143] here?
**A.** + (Compounds with a TI of <1 were labelled as +)

**Q.** COc1ccccc1C(=O)Nc1ccc2nc(SCC(=O)Nc3ccc(C)cc3C)sc2c1 [compound 168] was tested. Which “Therapeutic Index (TI)” value did it give?
**A.** + (Compounds with a TI of <1 were labelled as +)

**Q.** COc1ccccc1NC(=O)CSc1nc2ccc(NC(=O)c3ccccc3)cc2s1 [compound 167] was tested. Which “Therapeutic Index (TI)” value did it give?
**A.** + (Compounds with a TI of <1 were labelled as +)

**Q.** Which “Therapeutic Index (TI)” value does the source give for CCOc1ccc(C(=O)Nc2ccc3nc(SCC(=O)Nc4ccccc4Cl)sc3c2)cc1 [compound 64] here?
**A.** ++ (compounds with a TI of 1 to 5 were labelled as ++)

**Q.** Which “Therapeutic Index (TI)” value does the source give for COc1cccc(NC(=O)CSc2nc3ccc(NC(=O)c4ccccc4)cc3s2)c1 [compound 153] here?
**A.** + (Compounds with a TI of <1 were labelled as +)

**Q.** How did the “Therapeutic Index (TI)” value turn out when COc1ccccc1C(=O)Nc1ccc2nc(SCC(=O)N3CCc4ccccc43)sc2c1 [compound 30] was run?
**A.** ++ (compounds with a TI of 1 to 5 were labelled as ++)

**Q.** For CN(C(=O)CSc1nc2ccc(NC(=O)c3ccccc3)cc2s1)c1ccccc1 [compound 146], which “Therapeutic Index (TI)” value is on record?
**A.** + (Compounds with a TI of <1 were labelled as +)

**Q.** Which “Therapeutic Index (TI)” value does the source give for COc1cccc(C(=O)Nc2ccc3nc(SCC(=O)N(C)c4ccccc4)sc3c2)c1 [compound 45] here?
**A.** ++ (compounds with a TI of 1 to 5 were labelled as ++)

**Q.** For CCOc1ccc(NC(=O)CSc2nc3ccc(NC(=O)c4ccccc4Cl)cc3s2)cc1 [compound 22], which “Therapeutic Index (TI)” value is on record?
**A.** +++ (compounds with a TI of >5 were labeled as +++)

**Q.** COc1ccc(NC(=O)CSc2nc3ccc(NC(=O)c4cccc(C)c4)cc3s2)cc1 [compound 55] was tested. Which “Therapeutic Index (TI)” value did it give?
**A.** ++ (compounds with a TI of 1 to 5 were labelled as ++)

**Q.** How did the “Therapeutic Index (TI)” value turn out when CCCCOc1ccc(C(=O)Nc2ccc3nc(SCC(=O)Nc4ccc(C(C)=O)cc4)sc3c2)cc1 [compound 78] was run?
**A.** ++ (compounds with a TI of 1 to 5 were labelled as ++)

**Q.** With COc1ccccc1C(=O)Nc1ccc2nc(SCC(=O)Nc3c(C)cccc3C)sc2c1 [compound 59] as the molecule, how does the “Therapeutic Index (TI)” value read?
**A.** ++ (compounds with a TI of 1 to 5 were labelled as ++)

**Q.** CCCCOc1ccc(NC(=O)CSc2nc3ccc(NC(=O)c4ccccc4Cl)cc3s2)cc1 [compound 148] was tested. Which “Therapeutic Index (TI)” value did it give?
**A.** + (Compounds with a TI of <1 were labelled as +)

**Q.** Which “Therapeutic Index (TI)” value does the source give for CC(=O)Nc1ccc(NC(=O)CSc2nc3ccc(NC(=O)c4ccccc4)cc3s2)cc1 [compound 135] here?
**A.** ++ (compounds with a TI of 1 to 5 were labelled as ++)

**Q.** CCc1cccc(CC)c1NC(=O)CSc1nc2ccc(NC(=O)c3ccccc3)cc2s1 [compound 97] was tested. Which “Therapeutic Index (TI)” value did it give?
**A.** ++ (compounds with a TI of 1 to 5 were labelled as ++)

**Q.** Which “Therapeutic Index (TI)” value does the source give for CC(=O)c1ccc(NC(=O)CSc2nc3ccc(NC(=O)c4ccccc4Cl)cc3s2)cc1 [compound 17] here?
**A.** +++ (compounds with a TI of >5 were labeled as +++)

**Q.** CCOc1ccc(C(=O)Nc2ccc3nc(SCC(=O)Nc4ccc(C)cc4)sc3c2)cc1 [compound 94] was tested. Which “Therapeutic Index (TI)” value did it give?
**A.** ++ (compounds with a TI of 1 to 5 were labelled as ++)

**Q.** For Cc1ccc(Cl)cc1NC(=O)CSc1nc2ccc(NC(=O)c3ccccc3C)cc2s1 [compound 46], which “Therapeutic Index (TI)” value is on record?
**A.** ++ (compounds with a TI of 1 to 5 were labelled as ++)

**Q.** How did the “Therapeutic Index (TI)” value turn out when O=C(CSc1nc2ccc(NC(=O)c3ccccc3Cl)cc2s1)Nc1ccccc1F [compound 42] was run?
**A.** ++ (compounds with a TI of 1 to 5 were labelled as ++)

**Q.** How did the “Therapeutic Index (TI)” value turn out when O=C(CSc1nc2ccc(NC(=O)c3ccccc3)cc2s1)Nc1cccc(C(F)(F)F)c1 [compound 68] was run?
**A.** ++ (compounds with a TI of 1 to 5 were labelled as ++)

**Q.** Which “Therapeutic Index (TI)” value does the source give for CC(C)c1ccc(NC(=O)CSc2nc3ccc(NC(=O)c4ccccc4)cc3s2)cc1 [compound 14] here?
**A.** +++ (compounds with a TI of >5 were labeled as +++)

**Q.** How did the “Therapeutic Index (TI)” value turn out when Cc1ccc(NC(=O)CSc2nc3ccc(NC(=O)c4ccccc4)cc3s2)c(C)c1 [compound 88] was run?
**A.** ++ (compounds with a TI of 1 to 5 were labelled as ++)

**Q.** How did the “Therapeutic Index (TI)” value turn out when CCCCOc1ccc(NC(=O)CSc2nc3ccc(NC(=O)c4ccccc4OC)cc3s2)cc1 [compound 109] was run?
**A.** ++ (compounds with a TI of 1 to 5 were labelled as ++)

**Q.** For O=C(CSc1nc2ccc(NC(=O)c3ccc(Cl)cc3)cc2s1)Nc1ccc(F)cc1 [compound 62], which “Therapeutic Index (TI)” value is on record?
**A.** ++ (compounds with a TI of 1 to 5 were labelled as ++)

**Q.** Which “Therapeutic Index (TI)” value does the source give for COc1ccccc1NC(=O)CSc1nc2ccc(NC(=O)c3ccccc3C)cc2s1 [compound 163] here?
**A.** + (Compounds with a TI of <1 were labelled as +)

**Q.** With Cc1ccc(C(=O)Nc2ccc3nc(SCC(=O)Nc4ccccc4)sc3c2)cc1 [compound 36] as the molecule, how does the “Therapeutic Index (TI)” value read?
**A.** ++ (compounds with a TI of 1 to 5 were labelled as ++)

**Q.** CCOc1ccc(C(=O)Nc2ccc3nc(SCC(=O)Nc4cccc(C)c4)sc3c2)cc1 [compound 80] was tested. Which “Therapeutic Index (TI)” value did it give?
**A.** ++ (compounds with a TI of 1 to 5 were labelled as ++)

**Q.** With CC(C)(C)c1ccc(C(=O)Nc2ccc3nc(SCC(=O)Nc4ccccc4)sc3c2)cc1 [compound 98] as the molecule, how does the “Therapeutic Index (TI)” value read?
**A.** ++ (compounds with a TI of 1 to 5 were labelled as ++)

**Q.** With COc1ccc(C(=O)Nc2ccc3nc(SCC(=O)Nc4cc(C)cc(C)c4)sc3c2)cc1 [compound 103] as the molecule, how does the “Therapeutic Index (TI)” value read?
**A.** ++ (compounds with a TI of 1 to 5 were labelled as ++)

**Q.** COc1ccccc1NC(=O)CSc1nc2ccc(NC(=O)c3ccccc3OC)cc2s1 [compound 28] was tested. Which “Therapeutic Index (TI)” value did it give?
**A.** +++ (compounds with a TI of >5 were labeled as +++)

**Q.** For COc1ccc(C(=O)Nc2ccc3nc(SCC(=O)Nc4ccccc4)sc3c2)cc1OC [compound 5], which “Therapeutic Index (TI)” value is on record?
**A.** +++ (compounds with a TI of >5 were labeled as +++)

**Q.** Which “Therapeutic Index (TI)” value does the source give for O=C(CSc1nc2ccc(NC(=O)c3ccc(F)cc3)cc2s1)Nc1ccccc1 [compound 122] here?
**A.** ++ (compounds with a TI of 1 to 5 were labelled as ++)

**Q.** For CCCCOc1ccc(C(=O)Nc2ccc3nc(SCC(=O)Nc4ccc(C(C)C)cc4)sc3c2)cc1 [compound 82], which “Therapeutic Index (TI)” value is on record?
**A.** ++ (compounds with a TI of 1 to 5 were labelled as ++)

**Q.** Cc1cccc(NC(=O)CSc2nc3ccc(NC(=O)c4ccccc4C)cc3s2)c1 [compound 159] was tested. Which “Therapeutic Index (TI)” value did it give?
**A.** + (Compounds with a TI of <1 were labelled as +)

**Q.** Which “Therapeutic Index (TI)” value does the source give for CCCCOc1ccc(C(=O)Nc2ccc3nc(SCC(=O)Nc4ccc(CC)cc4)sc3c2)cc1 [compound 124] here?
**A.** ++ (compounds with a TI of 1 to 5 were labelled as ++)

**Q.** How did the “Therapeutic Index (TI)” value turn out when COc1ccccc1C(=O)Nc1ccc2nc(SCC(=O)Nc3cc(Cl)ccc3C)sc2c1 [compound 160] was run?
**A.** + (Compounds with a TI of <1 were labelled as +)

**Q.** Which “Therapeutic Index (TI)” value does the source give for CCc1cccc(CC)c1NC(=O)CSc1nc2ccc(NC(=O)c3cccc(C)c3)cc2s1 [compound 32] here?
**A.** ++ (compounds with a TI of 1 to 5 were labelled as ++)

**Q.** How did the “Therapeutic Index (TI)” value turn out when O=C(CSc1nc2ccc(NC(=O)c3ccccc3Br)cc2s1)Nc1ccccc1 [compound 127] was run?
**A.** ++ (compounds with a TI of 1 to 5 were labelled as ++)

**Q.** Cc1cccc(C(=O)Nc2ccc3nc(SCC(=O)Nc4ccccc4C)sc3c2)c1 [compound 7] was tested. Which “Therapeutic Index (TI)” value did it give?
**A.** +++ (compounds with a TI of >5 were labeled as +++)

**Q.** Which “Therapeutic Index (TI)” value does the source give for CCCCOc1ccc(NC(=O)CSc2nc3ccc(NC(=O)c4ccc(Cl)cc4Cl)cc3s2)cc1 [compound 129] here?
**A.** ++ (compounds with a TI of 1 to 5 were labelled as ++)

**Q.** How did the “Therapeutic Index (TI)” value turn out when CCOc1ccc(C(=O)Nc2ccc3nc(SCC(=O)Nc4ccccc4)sc3c2)cc1 [compound 119] was run?
**A.** ++ (compounds with a TI of 1 to 5 were labelled as ++)

**Q.** How did the “Therapeutic Index (TI)” value turn out when COc1ccc(Cl)cc1NC(=O)CSc1nc2ccc(NC(=O)c3ccc(C)cc3)cc2s1 [compound 131] was run?
**A.** ++ (compounds with a TI of 1 to 5 were labelled as ++)

**Q.** How did the “Therapeutic Index (TI)” value turn out when CC(=O)c1ccc(NC(=O)CSc2nc3ccc(NC(=O)c4ccccc4C)cc3s2)cc1 [compound 164] was run?
**A.** + (Compounds with a TI of <1 were labelled as +)

**Q.** For COc1ccc(NC(=O)CSc2nc3ccc(NC(=O)c4ccccc4F)cc3s2)cc1 [compound 3], which “Therapeutic Index (TI)” value is on record?
**A.** +++ (compounds with a TI of >5 were labeled as +++)

**Q.** Which “Therapeutic Index (TI)” value does the source give for CCc1cccc(CC)c1NC(=O)CSc1nc2ccc(NC(=O)c3ccccc3C)cc2s1 [compound 69] here?
**A.** ++ (compounds with a TI of 1 to 5 were labelled as ++)

**Q.** For CC(=O)c1ccc(NC(=O)CSc2nc3ccc(NC(=O)c4cccc(C)c4)cc3s2)cc1 [compound 138], which “Therapeutic Index (TI)” value is on record?
**A.** ++ (compounds with a TI of 1 to 5 were labelled as ++)

**Q.** CCOc1ccc(C(=O)Nc2ccc3nc(SCC(=O)Nc4ccccc4C)sc3c2)cc1 [compound 35] was tested. Which “Therapeutic Index (TI)” value did it give?
**A.** ++ (compounds with a TI of 1 to 5 were labelled as ++)

**Q.** CCc1ccc(NC(=O)CSc2nc3ccc(NC(=O)c4ccccc4)cc3s2)cc1 [compound 134] was tested. Which “Therapeutic Index (TI)” value did it give?
**A.** ++ (compounds with a TI of 1 to 5 were labelled as ++)

**Q.** For COc1ccc(C(=O)Nc2ccc3nc(SCC(=O)N4CCOCC4)sc3c2)cc1OC [compound 162], which “Therapeutic Index (TI)” value is on record?
**A.** + (Compounds with a TI of <1 were labelled as +)

**Q.** Which “Therapeutic Index (TI)” value does the source give for CCOc1ccc(NC(=O)CSc2nc3ccc(N4C(=O)c5ccccc5C4=O)cc3s2)cc1 [compound 25] here?
**A.** +++ (compounds with a TI of >5 were labeled as +++)

**Q.** With Cc1ccc(NC(=O)C(C)Sc2nc3ccc(NC(=O)c4ccccc4F)cc3s2)cc1 (centres unmarked) [compound 10] as the molecule, how does the “Therapeutic Index (TI)” value read?
**A.** +++ (compounds with a TI of >5 were labeled as +++)

**Q.** Which “Therapeutic Index (TI)” value does the source give for Cc1ccccc1NC(=O)CSc1nc2ccc(NC(=O)c3ccccc3C)cc2s1 [compound 152] here?
**A.** + (Compounds with a TI of <1 were labelled as +)

**Q.** With Cc1ccc(Cl)cc1NC(=O)CSc1nc2ccc(NC(=O)c3ccc(F)cc3)cc2s1 [compound 61] as the molecule, how does the “Therapeutic Index (TI)” value read?
**A.** ++ (compounds with a TI of 1 to 5 were labelled as ++)

**Q.** For Cc1ccc(NC(=O)CSc2nc3ccc(NC(=O)c4ccccc4C)cc3s2)cc1 [compound 141], which “Therapeutic Index (TI)” value is on record?
**A.** ++ (compounds with a TI of 1 to 5 were labelled as ++)

**Q.** For COc1ccc(NC(=O)CSc2nc3ccc(NC(=O)c4ccc(OC)cc4)cc3s2)cc1 [compound 85], which “Therapeutic Index (TI)” value is on record?
**A.** ++ (compounds with a TI of 1 to 5 were labelled as ++)
